Our source for the IC50 values is PMC11110727, “Exploiting thiol-functionalized benzosiloxaboroles for achieving diverse substitution patterns – synthesis, characterization and biological evaluation of promising antibacterial agents” (RSC Medicinal Chemistry, 2024).

The experiment has as its system Human normal lung fibroblasts MRC-5. Kind of experiment: MTT-based viability (cytotoxicity) assay. Particulars: MRC-5, MTT, 48 h. Here is the method: To evaluate the cytotoxic effect of the tested compounds, an MTT-based assay was performed. […] Moreover, based on available IC50 and MIC (for standard and clinical S. aureus MRSA strains) values, the selectivity index (SI) was calculated for several compounds as the IC50/MIC ratio (Table 5).[60]
MRC-5 pd30 human fibroblasts (ECACC) were cultured in MEME, Minimum Essential Medium Eagle (Merck), supplemented with 10% fetal bovine serum (Merck), 2 mM L-glutamine, antibiotics (100 U mL^−1 penicillin, 100 μg mL^−1 streptomycin, Merck) and 1% non-essential amino acids (Merck). Cells were grown in 75 cm^2 cell culture flasks (Sarstedt), in a humidified atmosphere of CO2/air (5/95%) at 37 °C. MTT-based viability assay was conducted as described previously.[26] Optical densities were measured at 570 nm using a BioTek microplate reader. All measurements were carried out in three replicates and the results expressed as a percent of viable cells versus control cells. […] The selectivity index (SI) was calculated as [drawing 30] , in accordance with previously described protocols.[60]

`N.N.[Cl][Pt][Cl]` [Cisplatin, reference compound] returned an IC50 of 1.9 µg/mL.

For orientation: IC50 means the concentration at which inhibition is half-maximal.
